Measured values published in PubChem BioAssay AID1241 (SRMLSC, 2008).

Assay: NF-kB promoter reporter activators, neuronal cells, dose response, cell-based, SH-SY5Y, luciferase (AID 1241)
Conditions: fold induction

| Compound | EC50 |
| --- | --- |
| Nc1nn(-c2cccc(F)n2)cc1-c1ccc(Cl)cc1 | 0.675 µM |
| CCOc1ccc(/C=N/Nc2ccccn2)cc1 | 1.01 µM |
| COc1cccc(-c2noc(-c3ccc4c(c3)OCO4)n2)c1 | 0.506 µM |
| COc1cccc(CNc2ccc(Br)cn2)c1O | 3.9 µM |
| NS(=O)(=O)c1cc(C(=O)OCC(=O)c2ccc3c(c2)OCCO3)ccc1Cl | 3.47 µM |
| O=C(N/N=C/C(Br)=C/c1ccccc1)c1cccs1 | 18.2 µM |
| COc1ccc(-c2coc3cc(OC)cc(O)c3c2=O)cc1 | 1.73 µM |
| CCCCc1ccc(-c2ccc(Br)cc2O)nc1 | 3.36 µM |
| Nc1ccc2nc(-c3ccc(Cl)cc3)[nH]c2c1 | 9.96 µM |
| O=C(N/N=C/C(Br)=C\c1ccccc1)c1n[nH]c2c1CCC2 | 1.09 µM |
| CCOc1ccc2nc(NC(=O)Nc3cccs3)sc2c1 | 1.68 µM |
| CS(=O)(=O)N1N=C(c2ccc(Br)cc2)CC1c1ccc2c(c1)OCO2 (configuration not stated) | 2.68 µM |
| Cc1ccc2sc(-c3ccc(NC(=O)/C=C\C(=O)O)cc3)nc2c1 | 4.83 µM |
| Cc1cccc(NC(=O)/C=C/c2ccc3c(c2)OCO3)n1 | 2.51 µM |
| COc1ccc(C(=O)Nc2ccc3c(c2)OCCO3)cc1 | 1.35 µM |
| Clc1ccc(Nc2nc(-c3cccs3)cs2)nc1 | 0.686 µM |
| Cc1cc(C(=O)Nc2cccc(C(=O)O)c2)oc1C | 29.8 µM |
| CC(C)c1ccc(/C=C/C(=O)Nc2nncs2)cc1 | 4.5 µM |
| CCN(CC)c1ccc(N=Nc2nn(C)c(C)c2[N+](=O)[O-])cc1 | 8.19 µM |
| O=C(Nc1ccc2c(c1)OCO2)c1ccc(Br)s1 | 4.22 µM |
| O=C(/C=C/Nc1cccc(O)c1)c1ccccc1 | 2.1 µM |
| COc1cccc(/C=C/C(=O)Nc2ccc3c(c2)OCCO3)c1 | 3.94 µM |
| Fc1ccc(-c2cn3cc(C(F)(F)F)cc(Cl)c3n2)cc1 | 4.45 µM |
| Cc1ccc(/C=C2\OC(=O)c3ccccc32)cc1 | 6.03 µM |
| COc1cccc2sc(N(C)c3ccccc3)nc12 | 2.67 µM |

| Compound | EC50 |
| --- | --- |
| FC(F)(F)c1cc(Cl)c2nc(-c3ccccc3)cn2c1 | 5.67 µM |
| Cc1ccc(C(=O)/C=C/Nc2ccc3c(c2)OCO3)cc1 | 0.896 µM |
| O=C(Nc1nc2ccc(Cl)cc2s1)c1ccco1 | 1.19 µM |
| CCCCCc1ccc(-c2ccc(C(=O)O)cc2)nc1 | 1.41 µM |
| O=C(CCCc1ccccc1)Nc1ccc2c(c1)OCCO2 | 1.5 µM |
| CC(C)(C)c1ccc(C(=O)/C=C2\NC(=O)CS2)cc1 | 1.14 µM |
| O=C(Nc1ccc(Cl)c(Cl)c1)Nc1ccccc1C(=O)O | 1.67 µM |
| COc1ccc(-c2ccc3ccccc3n2)cc1 | 0.651 µM |
| O=C(Nc1ccc2c(c1)OCCO2)c1ccc2ccccc2n1 | 1.44 µM |
| COc1ccccc1Nc1nc(-c2cccs2)cs1 | 3.68 µM |
| CC(C(=O)O)c1ccc(N2Cc3ccccc3C2=O)cc1 (configuration not stated) | 1.52 µM |
| CC(C)Oc1cc(O)c2c(=O)c(-c3ccc(O)cc3)coc2c1 | 4.52 µM |
| CC(=O)Nc1ccc(-c2cc3ccccc3o2)cc1 | 5.56 µM |
| COc1ccc(Nc2nc(-c3ccccc3)cs2)cc1 | 0.752 µM |
| O=C(Nc1ccccc1)c1ccc2ccccc2n1 | 5.81 µM |
| Cc1c(-c2nc(N)nc(Nc3ccccc3F)n2)oc2ccccc12 | 2.02 µM |
| O=C(NC(=S)Nc1ccc2c(c1)OCCO2)c1ccccc1F | 1.74 µM |
| c1ccc(OCCSc2nnnn2-c2ccccc2)cc1 | 8.35 µM |
| Cc1sc(NC(=O)c2ccco2)nc1-c1ccccc1 | 2.77 µM |
| Cc1ccc(N=Cc2sc(O)c3ccccc23)cc1 | 1.73 µM |
| O=C(Cc1ccccc1)Nc1nc2ccccc2s1 | 29.5 µM |
| Oc1sc(C=Nc2ccccc2)c2ccccc12 | 10.5 µM |
| CCOC(=O)c1sc(NC(=O)Nc2ccccc2)cc1C | 0.753 µM |
| CC(C)c1ccc(NC(=O)NC2CCCCC2)cc1 | 8.15 µM |
| C=CCN=c1scc(-c2ccccc2)n1/N=C/c1ccccn1 | 1.46 µM |

| Compound | EC50 |
| --- | --- |
| O=C(Nc1ccc2sc3ccccc3c(=O)c2c1)c1ccccc1Cl | 7.04 µM |
| Cc1ccc(-c2nc(-c3cccnc3)no2)cc1 | 1.32 µM |
| COc1ccc2nc3oc(C(=O)N4CCCCC4)cc3cc2c1 | 5.27 µM |
| c1ccc(Cn2ccc(-c3cnc(-c4ccccc4)s3)n2)cc1 | 2.24 µM |
| O=C(Nc1ccc2c(c1)OCCO2)NC1CCCCC1 | 18.2 µM |
| Oc1ccccc1-c1cc(-c2cccc(F)c2)n[nH]1 | 7.73 µM |
| O=C(O)c1ccc2nc(-c3ccccc3)sc2c1 | 1.84 µM |
| CCc1ccc2oc(-c3ccc(N)cc3)nc2c1 | 0.342 µM |
| CN(C)C(=O)Oc1ccc(-c2cn3cc(Cl)ccc3n2)cc1 | 3.22 µM |
| O=C(CSc1cccc[n+]1[O-])c1cc(Cl)ccc1Cl | 1.95 µM |
| Cc1sc(NC(=O)c2ccc(Cl)s2)c(C(N)=O)c1C | 1.7 µM |
| c1ccc2sc(-c3ccc4c(c3)OCO4)nc2c1 | 0.868 µM |
| C=CCNc1nc(-c2ccc(Cl)cc2)cs1 | 11.1 µM |
| C=CCSc1nnc(-c2ccc(Cl)cc2Cl)o1 | 4.37 µM |
| Nc1nn(-c2ccccc2)c(N)c1N=Nc1ccc2c(c1)OCO2 | 1.6 µM |
| Cc1c(C(=O)NC2=NCCS2)oc2ccccc12 | 1.03 µM |
| COC(=O)c1sc2nc3c(cc2c1N)CCCC3 | 4.06 µM |
| COc1ccc(-c2cn3ccsc3n2)cc1 | 12.5 µM |
| COc1ccc2nc(Nc3ccccc3)sc2c1 | 11.1 µM |
| Fc1ccccc1Cn1nnc(-c2ccc3c(c2)OCO3)n1 | 8.43 µM |
| COc1ccc(-c2nnc(-c3ccc(N)cc3)o2)cc1 | 2.12 µM |
| Cc1ccc(-c2cn3cccc(C)c3n2)cc1 | 2.3 µM |
| COc1cc(/C=C(/C(=O)c2cccs2)c2nc3ccccc3[nH]2)cc(OC)c1O | 7.67 µM |
| Cc1ccccc1Nc1nc(N)nc(CSc2ccc(F)cc2)n1 | 6.45 µM |
| O=C(CCS(=O)(=O)c1ccccc1)Nc1ccc(-c2nc3ccccc3s2)cc1 | 1.14 µM |

| Compound | EC50 |
| --- | --- |
| COc1cccc(N/C=C/C(=O)c2ccc(Cl)cc2)c1 | 0.652 µM |
| COc1ccc(-n2ncc3c(NCC(C)C)ncnc32)cc1 | 1.19 µM |
| CCN(CC)c1ccc(/C=N/NC(=S)NC)c(O)c1 | 1.98 µM |
| Cc1cc(C)n2cc(COc3ccc4ccccc4c3)nc2n1 | 1.83 µM |
| COc1ccc2nc(SCC(C)=O)c(C#N)cc2c1 | 1.9 µM |
| Cc1ccc(C(=O)/C=C/Nc2cccc(O)c2)cc1 | 0.559 µM |
| CC(=O)Nc1ccc2oc(-c3ccccc3Br)nc2c1 | 1.06 µM |
| c1cnc(SCCOc2ccc3c(c2)CCC3)nc1 | 8.8 µM |
| O=C(/C=C/c1ccc(Cl)cc1)Nc1nccs1 | 0.793 µM |
| O=C(Nc1ccc(Cl)cc1Cl)C1=Cc2ccccc2OC1 | 8.04 µM |
| Cc1ccc(NC(=O)COc2ccccc2C=O)cc1Cl | 3.88 µM |
| Nc1nc(-c2cccnc2)nc2sc3c(c12)CCCC3 | 6.84 µM |
| CN=c1scc(-c2ccccc2F)n1/N=C(\C)c1cccnc1 | 24.4 µM |
| O=C(Nc1cccnc1)c1cc2c(ccc3ccccc32)o1 | 3.46 µM |
| Cc1cc(NC(=O)c2ccccc2)sc1C | 17.3 µM |
| Cc1ccnc(NC(=O)/C=C/c2ccccc2Cl)c1 | 10.4 µM |
| COc1ccc(N/C=C\C(=O)c2ccc3c(c2)OCO3)cc1 | 1.63 µM |
| CC(C)c1cc(C(=O)Nc2cccc(Cl)c2)no1 | 2.42 µM |
| CSc1ccc(/C=N/Nc2ccc(Cl)c(C(=O)O)c2)cc1 | 5.91 µM |
| Cc1ccc(Nc2nc(C3CC3)cs2)cc1 | 1.82 µM |
| CCOc1cccc2cc(-c3csc(NC(=O)CCC(=O)NCCN4CCCCC4C)n3)c(=O)oc12 (configuration not stated) | 2.76 µM |
| O=C(NC(=S)Nc1ccc2c(c1)OCO2)c1ccccc1 | 5.7 µM |
